The results in this text go back to patent publication US20120171123A1, “USES AND COMPOSITIONS FOR TREATMENT OF RHEUMATOID ARTHRITIS” (priority 2006, published 2012).

Common to all, as to assay type: in vivo, human
Experiment [1] deals with MTX-naïve adult patients with early RA (<3 years). The experiment in a line: Study J: FACIT-F fatigue. The following applies: for FACIT-F mean change from baseline: LOCF. The text has this:
The Health Assessment Questionnaire Disability Index (HAQ DI) is a disease-specific tool that measures patient-reported physical function in 8 categories corresponding to normal activities in daily living. Fatigue is an important yet still often overlooked systemic symptom of RA. The Functional Assessment of Chronic Illness Therapy-Fatigue (FACIT-F) tool, measured by a 13-item, validated scale, assesses the impact of a disease and its therapy on fatigue.
Study J is described in detail in the above examples. The Health Assessment Questionnaire Disability Index (HAQ DI) and Functional Assessment of Chronic Illness Therapy-Fatigue (FACIT-F) were assessed at baseline, and following 12, 26, 42, 52, 76, and 104 weeks of therapy. Changes in scores were computed by subtracting the baseline from post-treatment score for each patient; mean changes were reported for each treatment group. The HAQ DI is assessed on a scale of 0-3, with higher numbers indicating greater disability. The minimum clinically important difference (MCID) is defined as changes ≧0.22 (Goldsmith C H, et al. J Rheumatol 1993; 20-561-5). The FACIT-F is assessed on a scale of 0-52, with higher scores indicating less fatigue. Changes of ≧4 are considered clinically meaningful (Cella D, et al. J Pain Symptom Manage 2002:24:547-61).

The subject of experiment [2] is patients with long-standing RA. The experiment in a line: Study 4: change in dosing of concomitant corticosteroids and methotrexate. The text has this: The mean corticosteroid dose (mg/day) at baseline was 5.56, where the mean corticosteroid dose (mg/day) at the final dose was 3.57 (p<0.0001 (determined by Wilcoxon's signed rank test)).
There was also a change in the dosing of concomitant methotrexate for RA patients in the study being treated with adalimumab. […] For only 8% of patients was the dose of mtx increased.

The subject of experiment [3] is patients with moderate to severe rheumatoid arthritis. The experiment is described as follows: Study C: HAQ. The procedure: (§1) The Canadian Adalimumab Clinical Trial (Study C) was an open-label, multi-center, Phase IIIb study conducted in Canada. […] Efficacy and safety were assessed at baseline, 4, 8, and 12 weeks. Efficacy assessments included tender joint count (TJC 0-28), swollen joint count (SJC 0-28), Disease Activity Score 28 (DAS28), Health Assessment Questionnaire (HAQ), and EULAR response. This was a preliminary analysis of 236 patients. The sample size for each outcome variable is based on the data available at the time of the analysis. The data from this preliminary analysis were compared with the Week 12 data from Study A (N=2008).

The test system is the same in experiment [4]. The experiment in a line: Study C: EULAR response. The following applies: 12 weeks. The procedure:
as §1

Experiment [5] concerns patients with long-standing RA. The experiment in a line: Study I open-label extension (adalimumab 40 mg eow + MTX): ACR response. The following applies: 5 years, observed. The procedure:
217 patients who completed the blinded period and participated in the extension trial for a minimum of 6 months were allowed to adjust MTX and/or corticosteroid dosages at the discretion of the principal investigators. Dose tapering was conducted according to standard medical practice with respect to controlling disease activity
Demographic data, age, gender, disease duration, rheumatoid factor and changes in TJC, SJC, CRP, DAS28, HAQ and ACR responses were analysed. Baseline demographics and disease characteristics as well as efficacy measures at last visit (ACR 20/50/70, DAS28, HAQ) were compared between the groups. All patients, including those who discontinued from the trial, were evaluated
Patients were eligible to enroll in Study I if they met ACR criteria for diagnosis of RA. […] Efficacy outcomes were assessed at pre-specified intervals as observed data. Treatment time was calculated beginning with the first subcutaneous injection of adalimumab at any dose, excluding time on placebo. Improvements in signs and symptoms of RA were evaluated for ACR20, ACR50, and ACR70 criteria, 28-joint count Disease Activity Score (DAS28) using the CRP-based formula, and Health Assessment Questionnaire (HAQ). Patients with changes in dosage of MTX or corticosteroids were evaluated for at least 6 months; these patients were eligible for the extension study for at least 6 months and were eligible for discretionary dose tapering. Patients were monitored for adverse events (AEs) during the entire length of the study, from signed informed consent through last visit.

Turning to `CN(Cc1cnc2nc(N)nc(N)c2n1)c1ccc(C(=O)N[C@@H](CCC(=O)O)C(=O)O)cc1` [mtx alone, methotrexate], in experiment [1] (Baseline), the FACIT-F mean score was 29.0. Also, the “FACIT-F mean change from baseline” value in experiment [1] (ΔWeek 12) amounted to 7.8; in experiment [1] (ΔWeek 26), 9.5; in experiment [1] (ΔWeek 42), 9.3; in experiment [1] (ΔWeek 52), 9.0; in experiment [1] (ΔWeek 76), 8.5; in experiment [1] (ΔWeek 104), 8.8.
Turning to “adalimumab: human anti-TNF mAb (HUMIRA, Abbott Laboratories), described in U.S. Pat. No. 6,090,382 as D2E7”, the “mean concomitant corticosteroid dose” value in experiment [2] (at final dose (baseline 5.56)) is reported as 3.57 mg/day. In addition, in experiment [2] (at final dose of adalimumab (baseline 15.79)), the “mean concomitant mtx dose” value is reported as 13.81 mg/week. In experiment [2] (n=294), the “patients with dose reduction of steroids” value was 29%, the “patients with increased steroid dose” value was 6% and the “patients with unchanged steroid dose” value turned out to be 40%. Further, in experiment [2] (n=546), the “patients with increased mtx dose” value is on record as 8%, the “patients with mtx dose reduction” value is listed as 32% and the “patients with unchanged mtx dose” value was found to be 60%. Moreover, the “patients able to discontinue steroids” value in experiment [2] (patients on concomitant corticosteroids, n=294) is 24%. In addition, in experiment [3] (12 weeks), the “improvement in HAQ score” value is on record as −0.55 and the “patients achieving HAQ<0.5” value was found to be 28%. In addition, the “HAQ (mean), change from baseline” value in experiment [3] (Study C, 12 weeks, preliminary analysis) is −0.55 (122). Besides, in experiment [3] (week 12 (baseline 1.4)), the “mean HAQ” value came to 0.86. For the same molecule, in experiment [4], the “Good EULAR response” value was 18% and the “Moderate EULAR response” value is 79%. Also, in experiment [4] (Study C, preliminary analysis), the “EULAR response, % good” value is on record as 18 (121) % and the “EULAR response, % moderate” value was 78 (121) %. Besides, in experiment [5], the ACR20 came to 76%, the ACR50 was 64% and the ACR70 is recorded as 39%.
